These results are taken from US9480638B2, “Cosmetic composition containing extracts of Adenophora triphylla var. japonica Hara, Angelica tenuissima and medicinal herbs” (AMOREPACIFIC CORPORATION, priority 2008, dated 2016).

Test [1] in a line: Test of antioxidant effect (DPPH test). Type of test: biochemical. Conditions: sample concentration at which absorbance at 540 nm is reduced by 50%; 100 μM DPPH in ethanol, 37° C., 30 minutes. Here is the method:
To confirm the antioxidant effect of the composition according to the present invention, the DPPH oxidation inhibitory effect of the composition was measured. As a control, the synthetic antioxidant Trolox was used. […] The reaction solution was allowed to react at 37° C. for 30 minutes, and then measured for absorbance at 540 nm. As a control sample, the widely used synthetic antioxidant Trolox was used. In Table 1, IC50 means the sample concentration at which the absorbance is reduced by 50%.
In general terms: The DPPH test is a chemical assay of radical scavenging.

The target of another test is T1, PPARα (Mus musculus, UniProt P23204).
T1 sequence (P23204 1-468): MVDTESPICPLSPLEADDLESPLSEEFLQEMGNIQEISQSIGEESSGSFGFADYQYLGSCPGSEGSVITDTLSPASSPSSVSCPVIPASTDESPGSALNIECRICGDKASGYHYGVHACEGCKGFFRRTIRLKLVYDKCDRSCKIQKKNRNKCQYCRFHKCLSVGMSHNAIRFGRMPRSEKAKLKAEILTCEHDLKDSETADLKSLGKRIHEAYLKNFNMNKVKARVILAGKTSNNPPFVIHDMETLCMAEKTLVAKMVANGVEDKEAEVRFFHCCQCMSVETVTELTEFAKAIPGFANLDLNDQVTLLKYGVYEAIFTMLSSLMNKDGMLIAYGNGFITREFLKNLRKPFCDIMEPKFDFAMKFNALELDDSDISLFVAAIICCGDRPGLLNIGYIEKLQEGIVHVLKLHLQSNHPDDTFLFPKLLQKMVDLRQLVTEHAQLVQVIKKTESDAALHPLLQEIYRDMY
In words: PPARα activation, PPRE promoter/luciferase reporter in transfected HaCaT cells. The settings on record: 10 uM positive control, PPARα expression plasmid + PPRE reporter, Control = 100.

Each structure is given as a SMILES string.

Description for PPARα: Human keratinocyte HaCaT cells were subcultured in 10% fetal bovine serum-containing DMEM medium, which is a phenol red-free medium, in order to eliminate the effect caused by the phenol red's estrogen.
HaCaT cells were seeded into a 24-well plate at a density of 5×10^4 cells/well, cultured for 24 hours, and then transiently transfected with the plasmid genes. […] As a negative control group, a group treated with ethanol used to dissolve the samples was used. After 24 hours of culture, the cells were washed with PBS, harvested and measured for luciferase activity.

Regarding `Cc1c(C)c2c(c(C)c1O)CCC(C)(C(=O)O)O2` (centres unmarked) [Trolox], the “IC50 (DPPH analysis)” value in test [1] came to 65 ppm.

For `Cc1cccc(Nc2cc(Cl)nc(SCC(=O)O)n2)c1C` [WY-14643, Wy-14,643], at PPARα, the luciferase activity amounted to 300.
